*1 amine or outer side, *2 acyl side, *3 side chain or, on linkers, in order; H or OH if unused. Where a SMILES comes first, the peptide text is derived from it. Bridges are numbered along the chain shown (N, C = ends). CH2COCH2 = O=C(C[*:1])C[*:2]; X1 = C(=C\C[*:2])/C[*:1]
Key:
Coagulation factor XI = Coagulation factor XI (Homo sapiens, UniProt P03951); test: Inhibition of biotinylated human FXIa assessed as inhibition of p-nitroaniline release using Pyr-Pro-Arg-pNA as substrate measured for 20 mins
Plasma [1] = test: Anticoagulant activity in CaCl2-activated human plasma assessed as fold prolongation of activated partial thromboplastin time at 30 uM relative to control; format: functional
Homo sapiens [2] = species: Homo sapiens; test: Selectivity for biotinylated human FXIa over uPA (unknown origin)
Homo sapiens [3] = species: Homo sapiens; test: Selectivity for biotinylated human FXIa over trypsin (unknown origin)
Plasma [4] = test: Anticoagulant activity in CaCl2-activated human plasma assessed as prolongation of activated partial thromboplastin time; format: functional
Homo sapiens [5] = species: Homo sapiens; test: Selectivity for biotinylated human FXIa over beta-FXIIa (unknown origin)
[6] = Stability in human plasma assessed as half life at 40 uM measured for 48 hrs; format: ADME, cell-free
Plasma [7] = test: Anticoagulant activity in rabbit plasma assessed as prolongation of activated partial thromboplastin time; format: functional, Oryctolagus cuniculus
Homo sapiens [8] = species: Homo sapiens; test: Selectivity for biotinylated human FXIa over plasmin (unknown origin)
Homo sapiens [9] = species: Homo sapiens; test: Selectivity for biotinylated human FXIa over tPA (unknown origin)
Homo sapiens [10] = species: Homo sapiens; test: Selectivity for biotinylated human FXIa over plasma kallikrein (unknown origin)
Homo sapiens [11] = species: Homo sapiens; test: Selectivity for biotinylated human FXIa over thrombin (unknown origin)
Blood [12] = test: Anticoagulant activity in human whole blood assessed as activated clotting time; format: functional
Plasma [13] = test: Anticoagulant activity in CaCl2-activated human plasma assessed as concentration required to achieve 1.6 fold prolongation of activated partial thromboplastin time; format: functional
Plasma [14] = test: Anticoagulant activity in CaCl2-activated human plasma assessed as concentration required to achieve 5.1 fold prolongation of activated partial thromboplastin time; format: functional
Blood [15] = test: Anticoagulant activity in human blood assessed as concentration required to achieve the effects achieved with minimal therapeutic dose of UFH for prolongation of aPTT; format: functional

Sequence of Coagulation factor XI (P03951 19-387 limits assumed): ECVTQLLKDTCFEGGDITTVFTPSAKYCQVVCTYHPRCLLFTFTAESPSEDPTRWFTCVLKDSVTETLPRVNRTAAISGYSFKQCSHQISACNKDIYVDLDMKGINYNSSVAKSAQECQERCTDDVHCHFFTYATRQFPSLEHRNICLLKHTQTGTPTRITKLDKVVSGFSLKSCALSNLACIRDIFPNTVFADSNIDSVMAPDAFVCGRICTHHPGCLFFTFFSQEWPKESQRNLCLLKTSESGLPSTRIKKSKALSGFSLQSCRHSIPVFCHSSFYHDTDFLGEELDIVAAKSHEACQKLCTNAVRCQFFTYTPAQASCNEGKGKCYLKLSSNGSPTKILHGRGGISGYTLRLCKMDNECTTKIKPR
Sequence of Coagulation factor XI (P03951 388-625 limits assumed): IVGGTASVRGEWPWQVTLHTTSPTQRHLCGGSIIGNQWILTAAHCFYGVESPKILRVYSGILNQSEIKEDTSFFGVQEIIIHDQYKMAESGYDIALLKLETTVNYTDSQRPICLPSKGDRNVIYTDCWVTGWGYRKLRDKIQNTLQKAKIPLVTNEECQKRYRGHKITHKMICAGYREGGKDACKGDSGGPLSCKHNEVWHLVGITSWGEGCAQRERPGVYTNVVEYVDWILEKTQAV

Compound	Ki (Coagulation factor XI) [nM]	fold change (FC) (Plasma [1])	EC2 (Plasma [4]) [µM]	further results
CC(C)[C@@H]1NC(=O)[C@H](CCCNC(=N)N)NC(=O)[C@H](C)NC(=O)[C@H](CC(N)=O)NC(=O)[C@H](CO)NC(=O)[C@@H](NC(=O)[C@H](CO)NC(=O)CNC(=O)[C@H](CCC(N)=O)NC(=O)[C@H](C)NC(=O)[C@H](CCCNC(=N)N)NC(=O)[C@H](CCCNC(=N)N)NC(=O)[C@@H]2CSCc3cccc(n3)CSC[C@@H](NC(=O)[C@@H](N)CO)C(=O)N2)CSCc2cccc(n2)CSC[C@@H](C(=O)N[C@@H](Cc2cnc[nH]2)C(=O)O)NC(=O)[C@H](C(C)C)NC1=O	270	1.9	–	–
CC[C@H](C)[C@@H]1NC(=O)[C@H](CCCNC(=N)N)NC(=O)[C@H]([C@@H](C)O)NC(=O)[C@H](CC(C)C)NC(=O)[C@H](C)NC(=O)[C@H](CO)NC(=O)[C@@H](NC(=O)[C@H](CCCNC(=N)N)NC(=O)[C@H](CCCNC(=N)N)NC(=O)[C@@H](NC(=O)[C@H](C)NC(=O)[C@H](CCCCN)NC(=O)[C@@H]2CSCc3cccc(n3)CSC[C@@H](NC(=O)[C@@H](N)CCC(N)=O)C(=O)N2)C(C)C)CSCc2cccc(n2)CSC[C@@H](C(=O)N2CCC[C@H]2C(=O)O)NC(=O)[C@H](C(C)C)NC1=O	0.9	2.7	2.9	Selectivity ratio (Homo sapiens [2]): > 1000; Selectivity ratio (Homo sapiens [3]): > 1000; Selectivity ratio (Homo sapiens [5]): > 1000; half-life at 40 µM [6]: 7.6 h; EC2 (Plasma [7]): 2 µM; Selectivity ratio (Homo sapiens [8]): > 1000; Selectivity ratio (Homo sapiens [9]): > 1000; Selectivity ratio (Homo sapiens [10]): > 1000; Selectivity ratio (Homo sapiens [11]): > 1000; EC1.5 (Blood [12]): 12 µM
CSCC[C@H](NC(=O)[C@H](CO)NC(=O)[C@@H](NC(=O)[C@H](CCCNC(=N)N)NC(=O)[C@H](CCC(N)=O)NC(=O)[C@H](CCC(N)=O)NC(=O)[C@@H]1CSCC(=O)CSC[C@H](NC(=O)[C@@H](N)CC(C)C)C(=O)N[C@@H](CO)C(=O)N[C@@H](CO)C(=O)N2CCC[C@H]2C(=O)N[C@@H](CO)C(=O)N1)[C@@H](C)O)C(=O)N[C@H]1CSCC(=O)CSC[C@H](C(=O)N2CCC[C@H]2C(=O)O)NC(=O)[C@H](CCCNC(=N)N)NC(=O)[C@H](Cc2ccc(O)cc2)NC1=O	100	1.9	–	–
CC(C)C[C@H](NC(=O)[C@@H](NC(=O)[C@@H]1CSC/C=C/CSC[C@H](NC(=O)[C@@H](N)CCC(=O)O)C(=O)N[C@@H](CCCCN)C(=O)N[C@@H]([C@@H](C)O)C(=O)N2CCC[C@H]2C(=O)N[C@@H](CCCNC(=N)N)C(=O)N[C@@H](CCC(=O)O)C(=O)N1)[C@@H](C)O)C(=O)N[C@H](C(=O)N[C@@H](CCCNC(=N)N)C(=O)N[C@H]1CSC/C=C/CSC[C@@H](C(=O)N[C@@H](CCC(=O)O)C(=O)O)NC(=O)[C@H](CO)NC(=O)[C@H](Cc2cnc[nH]2)NC(=O)[C@H](C(C)C)NC1=O)[C@@H](C)O (H-ECKTPRECTLTRCVHSCE-OH; linker 2-8, 13-17 via X1)	7.7	2	–	–
CSCC[C@@H]1NC(=O)CNC(=O)[C@H](CCCNC(=N)N)NC(=O)[C@@H](NC(=O)CN)CSCC(=O)CSC[C@@H](C(=O)N[C@H](C(=O)N[C@@H](CCCNC(=N)N)C(=O)N[C@H](C(=O)N[C@@H](CO)C(=O)N2CCC[C@H]2C(=O)N[C@@H](Cc2ccccc2)C(=O)N[C@H]2CSCC(=O)CSC[C@@H](C(=O)N3CCC[C@H]3C(=O)O)NC(=O)[C@H](CCCNC(=N)N)NC(=O)[C@H](C)NC2=O)[C@@H](C)O)C(C)C)NC(=O)[C@H](CO)NC1=O (H-GCRGMSCVRTSPFCARCP-OH; linker 2-7, 14-17 via CH2COCH2)	260	2.4	–	–
CC[C@H](C)[C@@H]1NC(=O)[C@H](CCCNC(=N)N)NC(=O)[C@H]([C@@H](C)O)NC(=O)[C@H](CC(C)C)NC(=O)[C@H](C)NC(=O)[C@H](CO)NC(=O)[C@@H](NC(=O)[C@H](CCCNC(=N)N)NC(=O)[C@H](CCCNC(=N)N)NC(=O)[C@@H](NC(=O)[C@H](C)NC(=O)[C@H](CCCCN)NC(=O)[C@H](CO)NC(=O)[C@H](CO)NC(=O)[C@@H](N)CCC(N)=O)C(C)C)CSSC[C@@H](C(=O)N2CCC[C@H]2C(=O)O)NC(=O)[C@H](C(C)C)NC1=O (H-QSSKAVRRCSALTRIVCP-OH; disulfide 9-17)	2.6	–	4.9	–
CC[C@H](C)[C@@H]1NC(=O)[C@H](CCCNC(=N)N)NC(=O)[C@H]([C@@H](C)O)NC(=O)[C@H](CC(C)C)NC(=O)[C@H](C)NC(=O)[C@H](CO)NC(=O)[C@@H](NC(=O)[C@H](CCCNC(=N)N)NC(=O)[C@H](CCCNC(=N)N)NC(=O)[C@@H](NC(=O)[C@H](C)NC(=O)[C@H](CCCNC(=N)N)NC(=O)[C@H](CO)NC(=O)[C@H](CO)NC(=O)[C@@H](N)CCC(N)=O)C(C)C)CSSC[C@@H](C(=O)N2CCC[C@H]2C(=O)O)NC(=O)[C@H](C(C)C)NC1=O (H-QSSRAVRRCSALTRIVCP-OH; disulfide 9-17)	2.4	–	3.1	–
CC[C@H](C)[C@@H]1NC(=O)[C@H](CCCNC(=N)N)NC(=O)[C@H]([C@@H](C)O)NC(=O)[C@H](CC(C)C)NC(=O)[C@H](C)NC(=O)[C@H](CO)NC(=O)[C@@H](NC(=O)[C@H](CCCNC(=N)N)NC(=O)[C@H](CCCNC(=N)N)NC(=O)[C@@H](NC(=O)[C@H](C)NC(=O)[C@@H](N)CCCNC(=N)N)C(C)C)CSSC[C@@H](C(=O)N2CCC[C@H]2C(=O)O)NC(=O)[C@H](C(C)C)NC1=O (H-RAVRRCSALTRIVCP-OH; disulfide 6-14)	2.8	–	1.5	Activity (Plasma [13]): 0.34 µM; Activity (Plasma [14]): 45 µM; Activity (Blood [15]): 0.77 µM
CC(C)C[C@@H]1NC(=O)CNC(=O)[C@H](CCC(N)=O)NC(=O)[C@@H](NC(=O)[C@@H](N)CCCNC(=N)N)CSCC(=O)CSC[C@@H](C(=O)N[C@@H](Cc2ccccc2)C(=O)N[C@H](C(=O)N[C@@H](CO)C(=O)N[C@@H](CC(N)=O)C(=O)N[C@@H](CCCCN)C(=O)N[C@@H](Cc2ccc(O)cc2)C(=O)N[C@H]2CSCC(=O)CSC[C@@H](C(=O)N3CCC[C@H]3C(=O)O)NC(=O)[C@H](CCCNC(=N)N)NC(=O)[C@H](C)NC2=O)[C@@H](C)O)NC(=O)[C@H](Cc2c[nH]c3ccccc23)NC1=O (H-RCQGLWCFTSNKYCARCP-OH; linker 2-7, 14-17 via CH2COCH2)	62	3.2	–	–
CC[C@H](C)[C@@H]1NC(=O)[C@@H](NC(=O)[C@H](CCCNC(=N)N)NC(=O)[C@@H](NC(=O)[C@H](CC(C)C)NC(=O)[C@@H](NC(=O)[C@@H]2CSC/C=C/CSC[C@H](NC(=O)[C@@H](N)CO)C(=O)N[C@@H](CCC(=O)O)C(=O)N[C@@H]([C@@H](C)O)C(=O)N3CCC[C@H]3C(=O)N[C@@H](CCC(N)=O)C(=O)N[C@@H](C)C(=O)N2)[C@@H](C)O)[C@@H](C)O)CSC/C=C/CSC[C@@H](C(=O)N[C@@H](CC(N)=O)C(=O)O)NC(=O)[C@H](CCC(N)=O)NC(=O)[C@H]([C@@H](C)O)NC1=O (H-SCETPQACTLTRCITQCN-OH; linker 2-8, 13-17 via X1)	72	1.7	–	–
CC(C)C[C@@H]1NC(=O)[C@H](CCC(N)=O)NC(=O)[C@@H]2CCCN2C(=O)[C@@H](NC(=O)[C@@H](N)CO)CSC/C=C/CSC[C@@H](C(=O)N[C@@H](CO)C(=O)N[C@@H](CCCNC(=N)N)C(=O)N[C@H](C(=O)N[C@@H](CCCNC(=N)N)C(=O)N[C@H]2CSC/C=C/CSC[C@@H](C(=O)N[C@@H](CO)C(=O)O)NC(=O)[C@H](CC(=O)O)NC(=O)[C@H](CC(C)C)NC(=O)[C@H](C(C)C)NC2=O)[C@@H](C)O)NC(=O)[C@H](Cc2ccc(O)cc2)NC(=O)[C@H](CCC(=O)O)NC1=O (H-SCPQLEYCSRTRCVLDCS-OH; linker 2-8, 13-17 via X1)	31	1.6	–	–
